The data set in a line: Human HepG2 cell viability assay in 384 well format. Format: toxicity, cell-based. Details: dose 125 nL, time 70.5 hour; cytotoxicity at 70.5 h: concentration not given beside the values. To be noted: HepG2 cells, read-out: Inhibition.
Consider `COC(C(=O)NC1CC1)c1ccccc1` (stereo not given), for which the cytotoxicity at 70.5 h was 28.7%.

For `COc1ccc(CN2CCO[C@H]3CN(C(C)=O)CC[C@H]3C2=O)cc1`, the cytotoxicity at 70.5 h was found to be 19.5%.

Consider `CO[C@H]1CN(C(=O)c2ccc3c(c2)OCO3)[C@@H]2COC[C@H]12`, for which the cytotoxicity at 70.5 h came out at 0.574%.

With `COCC(=O)N1CCC2(CC1)CC(OC)c1ccc(F)cc12` (stereo not given), the cytotoxicity at 70.5 h is -0.706%.

Take `CS(=O)(=O)N1CCN(CC2CC2)c2ncccc2C1`: the cytotoxicity at 70.5 h is -9.41%.

Regarding `CCOC1CC2(CCN(C(C)=O)CC2)c2cc(F)ccc21` (stereo not given), the cytotoxicity at 70.5 h is -3.98%.

In the case of `CC(C)N1[C@H](CN2CCCC2)C[C@@H]2CN(Cc3cnn(C)c3)CC[C@@H]21`, the cytotoxicity at 70.5 h was -10.1%.

`O=C(NCC1CC1)C1CCC2(CN(C(=O)c3ccno3)C2)O1` (stereo not given): the cytotoxicity at 70.5 h is -13.9%.

Consider `O=C(c1ccno1)N1CC2(CCC(C(=O)N3CCCC3)O2)C1` (stereo not given), for which the cytotoxicity at 70.5 h was -14.7%.

`N#CCC(=O)NCc1nnc2n1CCN(Cc1ccco1)C2`: the cytotoxicity at 70.5 h is -13%.

Turning to `O=C(c1ccco1)N1CC[C@@H]2O[C@@H](COCC3CCOCC3)CC[C@@H]21`, the cytotoxicity at 70.5 h is 11.4%.

With `CN(C)C(=O)CN1CCC2(CCCN(c3ncc(F)cn3)C2)C1=O` (stereo not given), the cytotoxicity at 70.5 h stood at 16.4%.

For `Cn1cc(CN2CCC3(CC2)CCN(Cc2ccccn2)CC3)cn1`, the cytotoxicity at 70.5 h was 12%.

Turning to `COCCC(=O)N1CCC2(COCc3cnc(NCC4CC4)nc32)C1` (stereo not given), the cytotoxicity at 70.5 h amounted to 1.86%.

As for `CCN1CC2(CC1=O)CN(C(=O)c1cccs1)CCN(C(=O)N(C)C)C2` (stereo not given), the cytotoxicity at 70.5 h is -1.77%.

Take `Cc1oncc1C(=O)N1CCC2(CCN(Cc3cccc(F)c3)C2=O)C1` (stereo not given): the cytotoxicity at 70.5 h was -2.01%.

For the compound `c1coc(CN2CC[C@@H]3O[C@@H](COCc4ccncc4)CC[C@@H]32)c1`, the cytotoxicity at 70.5 h came to 3.57%.

With `Cc1cnc(C(=O)N2C[C@H]3CN(Cc4cccs4)C[C@H]3C2)cn1`, the cytotoxicity at 70.5 h was 8.68%.

Turning to `COc1ncnc2c1CCN(Cc1cccc(C)n1)CC2`, the cytotoxicity at 70.5 h came out at 5.99%.

On to `Cc1nc(CN2C(=O)C[C@@H]3[C@@H]2CCN3S(C)(=O)=O)cs1`, for which the cytotoxicity at 70.5 h is -4.41%.

For the compound `COc1nn(C)c2c1CCCN(C(=O)c1ccc(C)c(F)c1)C2`, the cytotoxicity at 70.5 h is -101%.

As for `O=C1[C@H]2CN(c3ncccn3)C[C@H]2CN1CC1CC1`, the cytotoxicity at 70.5 h was -124%.

In the case of `COc1nn(C)c2c1CCCN(C(=O)COc1ccccc1)C2`, the cytotoxicity at 70.5 h was -104%.

As to `Cn1cc(C(=O)NCc2cn3c(n2)CN(Cc2ccncc2)CC3)cn1`, the cytotoxicity at 70.5 h was -7.44%.

On to `COc1nn(C)c2c1CCCN(C(=O)c1cccn1C)C2`, for which the cytotoxicity at 70.5 h is -41.9%.

In the case of `COc1nn(C)c2c1CCCN(C(=O)c1ccc[nH]1)C2`, the cytotoxicity at 70.5 h was -99.5%.

Take `CCCS(=O)(=O)N1CCC2(CC1)CC(Nc1ncccn1)CO2` (stereo not given): the cytotoxicity at 70.5 h was -99.6%.

As to `CCC1=N[C@@]2(CC[C@@H]3CN(C(=O)Nc4ccccc4)C[C@@H]32)C(=O)N1C`, the cytotoxicity at 70.5 h was -85.8%.

Take `COCCC(=O)N1CCC2(CCN(Cc3ccc(OC)c(F)c3)C2)C1` (stereo not given): the cytotoxicity at 70.5 h was -93.9%.

Consider `COCC1c2c(cnn2C)CCN1Cc1ccc(C)o1` (stereo not given), for which the cytotoxicity at 70.5 h was -18.3%.

As for `C[C@H]1C[C@@H]2CCN(C(=O)c3ccncc3)C[C@H]2O1`, the cytotoxicity at 70.5 h is -2.95%.

Turning to `CC(=O)N1CCN(C(=O)NC(C)C)CC2(CC(=O)N(C)C2)C1` (stereo not given), the cytotoxicity at 70.5 h is -13.5%.

`Cn1nc(C(=O)NCc2cccnc2)c2c1CCS(=O)(=O)C2`: the cytotoxicity at 70.5 h is 24.8%.

For the compound `Cn1nc(C(=O)NCc2ccc(F)cc2)c2c1CCS(=O)(=O)C2`, the cytotoxicity at 70.5 h was -6.3%.

For `CCC1=NC(SCC(=O)c2ccccc2)c2cc(CC)sc2N1` (stereo not given), the cytotoxicity at 70.5 h was 13.5%.

On to `Cc1c(S(=O)(=O)NC2CC2)cc2c(C)cc(=O)n3c2c1CCC3`, for which the cytotoxicity at 70.5 h amounted to 0.953%.

On to `Cc1nnc(SCC(=O)NCc2ccc3c(c2)CCC(=O)N3)s1`, for which the cytotoxicity at 70.5 h was 2.74%.

As for `Cn1c(=O)oc2cc(S(=O)(=O)N3CCCCC3)c(Cl)cc21`, the cytotoxicity at 70.5 h worked out at 47.9%.

Turning to `Cn1c(=O)oc2ccc(S(=O)(=O)N3CCC(c4ccccc4)C3)cc21` (stereo not given), the cytotoxicity at 70.5 h came out at 28.3%.

For the compound `COCC(=O)N1CCC2(CCc3ccc(F)cc32)CC1`, the cytotoxicity at 70.5 h is -2.02%.

On to `c1c(CN2CCCC2)nc2n1CCNC2`, for which the cytotoxicity at 70.5 h came out at 9.22%.

For the compound `CCN1CCOCC12CCN(C(=O)c1ccsc1)CC2`, the cytotoxicity at 70.5 h was -7.84%.

In the case of `CCS(=O)(=O)N1CCCC2(CCCN2Cc2cccc(F)c2)C1` (stereo not given), the cytotoxicity at 70.5 h is -8.06%.

For the compound `CC(=O)N1CC[C@H]2[C@H](C[C@@H](Cn3cncn3)N2c2nccs2)C1`, the cytotoxicity at 70.5 h was -8.31%.

For the compound `CCn1ncc2c1C(COCC1CC1)N(C(=O)c1ccncn1)CC2` (stereo not given), the cytotoxicity at 70.5 h was -11.3%.

Take `CN1CCO[C@H]2CN(C(=O)c3ccncc3F)C[C@H]21`: the cytotoxicity at 70.5 h was -3.39%.

On to `Cn1ccnc1CN1CCc2ncnc(N3CCCC3)c2CC1`, for which the cytotoxicity at 70.5 h was -3.33%.

`COCCN1CCC12CCN(C(=O)c1ccsc1)CC2`: the cytotoxicity at 70.5 h was -11.4%.

For `O=C(c1nc2c(o1)CN(CC1CC1)C2)N1CCCC1`, the cytotoxicity at 70.5 h was -13.1%.

For the compound `CO[C@H]1CN(Cc2ccc(C)o2)[C@@H]2CCCO[C@H]12`, the cytotoxicity at 70.5 h was determined as 13.3%.

As for `CCOCC1CN(S(=O)(=O)CC)Cc2cnn(CC3CC3)c21` (stereo not given), the cytotoxicity at 70.5 h is 6.24%.

`c1cncc(CN2Cc3nccn3CC(Cn3cncn3)C2)c1` (stereo not given): the cytotoxicity at 70.5 h was found to be 0.12%.

Regarding `c1csc(CN2Cc3nccn3CC(Cn3cncn3)C2)c1` (stereo not given), the cytotoxicity at 70.5 h worked out at 2.43%.

Take `CCc1ccc(CN2Cc3nccn3CC(Cn3cncn3)C2)o1` (stereo not given): the cytotoxicity at 70.5 h is 2.9%.

Turning to `CCOCC1CN(Cc2ccco2)Cc2nccn2C1` (stereo not given), the cytotoxicity at 70.5 h turned out to be 3.52%.

`Cc1cccc(CN2C(=O)CO[C@@H]3CN(C4CCOCC4)C[C@H]32)c1`: the cytotoxicity at 70.5 h is 0.326%.

For `O=C(c1ccc(F)cc1)N1CCC2(CCN(Cc3ccccn3)C2=O)C1` (stereo not given), the cytotoxicity at 70.5 h is -5.2%.

In the case of `Cc1ccc(CN2Cc3nccn3CC(Cn3cncn3)C2)s1` (stereo not given), the cytotoxicity at 70.5 h is -1.32%.

`O=C(NC[C@H]1OC[C@@H]2CN(Cc3ccco3)CC[C@@H]21)c1cscn1`: the cytotoxicity at 70.5 h was 0.732%.

`Cc1cccc(CN2CCc3ncnc(C4CC4)c3CC2)n1`: the cytotoxicity at 70.5 h worked out at 5.72%.

`Cc1nc(CN2C(=O)CC[C@@H]3[C@H]2CCN3C2CCOC2)cs1` (stereo not given in full): the cytotoxicity at 70.5 h worked out at 1.29%.

In the case of `COc1ccc(CN2CCc3ncnc(C4CC4)c3CC2)cc1`, the cytotoxicity at 70.5 h was 1.6%.

In the case of `Cn1ccc(C(=O)NC2CCC23CCN(CC2CCOCC2)CC3)c1` (stereo not given), the cytotoxicity at 70.5 h came out at 3.91%.

With `CO[C@@H]1CO[C@@]2(CCCN(Cc3nc(C)cs3)C2)C1`, the cytotoxicity at 70.5 h is -1.7%.

Regarding `O=c1ccc2c(n1CC1CCOCC1)CCN(Cc1ccoc1)CC2`, the cytotoxicity at 70.5 h stood at 49.3%.

For `c1cnc(NC2COC3(CCN(Cc4cc[nH]n4)CC3)C2)nc1` (stereo not given), the cytotoxicity at 70.5 h is -99.2%.

For the compound `COCCN1CCn2cc(CNC(=O)c3cnn(C)c3)nc2C1`, the cytotoxicity at 70.5 h was -38%.

On to `COCCC(=O)N1CCCC2(CCCN2Cc2ccccc2F)C1` (stereo not given), for which the cytotoxicity at 70.5 h was -107%.

Take `Cc1nc(COC[C@@H]2CC[C@H]3[C@H](CCN3c3ccccn3)O2)cs1`: the cytotoxicity at 70.5 h was -90.1%.

Take `c1cnc(NC2COC3(CCN(Cc4cccs4)CC3)C2)nc1` (stereo not given): the cytotoxicity at 70.5 h was -97%.

Turning to `CCCS(=O)(=O)N1CCC2(CN(c3ccccc3)C(=O)CN2C)C1` (stereo not given), the cytotoxicity at 70.5 h was -87.7%.

As for `O=C1[C@H]2CN(c3ncccn3)C[C@H]2CN1CCN1CCCC1`, the cytotoxicity at 70.5 h is -47.2%.

Regarding `O=C(NCCCO)c1cc(-c2cc[nH]n2)n2ccccc12`, the cytotoxicity at 70.5 h is -102%.

For `CN(C)C(=O)COC[C@@H]1CC[C@H]2[C@H](CCN2c2ncccn2)O1`, the cytotoxicity at 70.5 h was -66.5%.

Regarding `c1ccc(CN2CCc3c(CNc4nccs4)n[nH]c3C2)nc1`, the cytotoxicity at 70.5 h was -16.9%.

As for `Cc1oncc1C(=O)N1C[C@H](OCc2ccccn2)[C@H]2OCCC[C@H]21`, the cytotoxicity at 70.5 h is -11.5%.

Regarding `CN(C)C(=O)CC1CC2(CCN(Cc3ccoc3)CC2)c2ccccc21` (stereo not given), the cytotoxicity at 70.5 h is -2.19%.

In the case of `COCC(=O)N1C[C@@H](OCc2ccncc2)[C@@H]2OCCC[C@@H]21`, the cytotoxicity at 70.5 h is 52.2%.

For the compound `CC(C)C(=O)N1CCN(Cc2cnn(C)c2)CC2(CC(=O)N(C)C2)C1` (stereo not given), the cytotoxicity at 70.5 h is -13.2%.

With `CCOCC1CN(Cc2nccs2)Cc2nn(CC3CC3)cc21` (stereo not given), the cytotoxicity at 70.5 h was -9.99%.

As to `Cc1noc(C)c1CN1CCc2c(CNc3nccs3)n[nH]c2C1`, the cytotoxicity at 70.5 h was -12.5%.

Take `O=C1COC2(CCN(S(=O)(=O)C3CC3)CC2)CN1c1cccnc1`: the cytotoxicity at 70.5 h was found to be 40.1%.

With `Cc1ccc(CN2C[C@@H](N(C)C)[C@H]3OCCC[C@H]32)o1`, the cytotoxicity at 70.5 h amounted to 1.56%.

On to `Cc1ccc(CN2CC[C@H]3[C@H]2CC(=O)N3c2cccnc2)o1`, for which the cytotoxicity at 70.5 h was found to be 8.92%.

As to `CCOCC1CN(CCN(C)C)Cc2cnn(CC3CCCC3)c21` (stereo not given), the cytotoxicity at 70.5 h came out at 4.97%.

`CCOCC1CN(C2CCCC2)Cc2cnn(CC3CCOCC3)c21` (stereo not given): the cytotoxicity at 70.5 h came out at 2.06%.

On to `O=c1ccc2c(n1Cc1ccncc1)CCN(Cc1ccoc1)CC2`, for which the cytotoxicity at 70.5 h came to 1.47%.

For the compound `CCN1CCn2cc(CNC(=O)c3cnn(C)c3)nc2C1`, the cytotoxicity at 70.5 h is -110%.

Regarding `c1cncc(OC[C@]23COC[C@H]2CN(Cc2ccsc2)C3)c1`, the cytotoxicity at 70.5 h was -129%.

For `c1cncc(OC[C@]23COC[C@H]2CN(Cc2nccs2)C3)c1`, the cytotoxicity at 70.5 h is -120%.

In the case of `Cn1cc(C(=O)NCc2cn3c(n2)CN(CC2CCCC2)CC3)cn1`, the cytotoxicity at 70.5 h was -112%.

With `CCN1CCC2(CC1)CC(NCc1cccs1)c1ccccc1O2` (stereo not given), the cytotoxicity at 70.5 h was -5.71%.

For `c1nc(CN2CCC3(CC2)COCCN3CC2CC2)c[nH]1`, the cytotoxicity at 70.5 h is -18.8%.

As for `Cn1ncc2c1C(COCC1CC1)N(Cc1ccoc1)CC2` (stereo not given), the cytotoxicity at 70.5 h is -19.6%.

With `CC(C)N1[C@H](Cn2cccn2)C[C@@H]2CN(Cc3ccoc3)CC[C@@H]21`, the cytotoxicity at 70.5 h was -13.4%.

(Values after ChEMBL document CHEMBL3507680, “University of Dundee, Gates Library screen for HepG2 cell viability”.)
